# Experimental data: US20070123546A1, “2-amino-7,8-dihydro-6H-pyrido[4,3-d]pyrimidin-5-ones” (Chiron Corporation, priority 2005, published 2007)
# Target: His-tagged N-terminal ATP binding domain (amino acid residues 9-236) of HSP90α (Homo sapiens, UniProt P07900)
# Assay: HSP90 inhibitor binding potency: TRF competition binding assay
# Settings: Table 1; competition with biotinylated radicicol
# Procedure: HSP90 Inhibitor Binding Potency: TRF Binding Assay
# In this example, the binding potency of HSP90 inhibitors as measured by a TRF binding assay is described.
# TRF competition binding assays were performed to determine the binding potency (IC50 values) of HSP90 inhibitors. Purified His-tagged N-terminal ATP binding domain (amino acid residues 9-236) of HSP90α (HSP90α GeneID: 3320; mRNA Sequence NM_005348) was incubated for two hours at room temperature in binding buffer (50 mM HEPES, 6 mM MgCl2, 20 mM KCl and 0.1% BSA) with biotinylated radicicol and progressively higher concentrations of the competing compounds. A fraction of the mixture was transferred to capture plates (coated with streptavidin) and incubated for one hour at room temperature. After washing with DELFIA wash buffer, europium-labeled anti-his antibody was added and incubated for two hours at room temperature, followed by washing with DELFIA buffer. DELFIA enhancement solution was then added. After gentle shaking for 10 minutes, the plates were read in VICTOR for europium counts.
row,SMILES,IC50 [µM]
1,"COc1cncc(-c2cc(F)ccc2C2Cc3nc(N)nc(C)c3C(=O)N2)c1 (centres unmarked) [Compound 36, 2-Amino-7-[4-fluoro-2-(5-methoxy-pyridin-3-yl)-phenyl]-4-methyl-7,8-dihydro-6H-pyrido[4,3-d]pyrimidin-5-one]",< 10
2,"Cc1nc(N)nc2c1C(=O)N(CC(C)(C)N1CCOCC1)C(c1ccc(F)cc1-c1cncnc1)C2 (centres unmarked) [Compound 37, 2-Amino-7-(4-fluoro-2-pyrimidin-5-yl-phenyl)-4-methyl-6-(2-methyl-2-morpholin-4-yl-propyl)-7,8-dihydro-6H-pyrido[4,3-d]pyrimidin-5-one]",> 10
3,"COc1ncccc1-c1cc(F)ccc1C1Cc2nc(N)nc(C)c2C(=O)N1CC(C)(C)N1CCOCC1 (centres unmarked) [Compound 38, 2-Amino-7-[4-fluoro-2-(2-methoxy-pyridin-3-yl)-phenyl]-4-methyl-6-(2-methyl-2-morpholin-4-yl-propyl)-7,8-dihydro-6H-pyrido[4,3-d]pyrimidin-5-one]",> 10
4,"COc1cccc(-c2cc(F)ccc2C2Cc3nc(N)nc(C)c3C(=O)N2CC(C)(C)N2CCOCC2)c1 (centres unmarked) [Compound 39, 2-Amino-7-(5-fluoro-3′-methoxy-biphenyl-2-yl)-4-methyl-6-(2-methyl-2-morpholin-4-yl-propyl)-7,8-dihydro-6H-pyrido[4,3-d]pyrimidin-5-one]",> 10
5,"COc1nc(-c2cc(F)ccc2[C@H]2Cc3nc(N)nc(C)c3C(=O)N2)ncc1C [Compound 40, (R)-2-Amino-7-[4-fluoro-2-(4-methoxy-5-methyl-pyrimidin-2-yl)-phenyl]-4-methyl-7,8-dihydro-6H-pyrido[4,3-d]pyrimidin-5-one]",< 10
6,"Cc1nc(N)nc2c1C(=O)NC(c1ccc(F)cc1-c1ccoc1)C2 (centres unmarked) [Compound 41, 2-Amino-7-(4-fluoro-2-furan-3-yl-phenyl)-4-methyl-7,8-dihydro-6H-pyrido[4,3-d]pyrimidin-5-one]",< 10

# Same assay, conditions: Table 2; competition with biotinylated radicicol
row,SMILES,IC50 [µM]
1,"COc1cncc(-c2ccccc2[C@H]2Cc3nc(N)ncc3C(=O)N2)n1 [Compound 42, (R)-2-Amino-7-[2-(6-methoxy-pyrazin-2-yl)-phenyl]-7,8-dihydro-6H-pyrido[4,3-d]pyrimidin-5-one]",< 10
2,"COc1cccc(-c2ccccc2[C@H]2Cc3nc(N)ncc3C(=O)N2)n1 [Compound 43, (R)-2-Amino-7-[2-(6-methoxy-pyridin-2-yl)-phenyl]-7,8-dihydro-6H-pyrido[4,3-d]pyrimidin-5-one]",< 10
3,"COc1nc(-c2cc(F)ccc2[C@H]2Cc3nc(N)nc(C)c3C(=O)N2)ccc1N [Compound 44, (R)-2-Amino-7-[2-(5-amino-6-methoxy-pyridin-2-yl)-4-fluoro-phenyl]-4-methyl-7,8-dihydro-6H-pyrido[4,3-d]pyrimidin-5-one]",< 10
4,"COc1nc(-c2ccccc2[C@H]2Cc3nc(N)nc(C)c3C(=O)N2)ccc1N [Compound 45, (R)-2-Amino-7-[2-(5-amino-6-methoxy-pyridin-2-yl)-phenyl]-4-methyl-7,8-dihydro-6H-pyrido[4,3-d]pyrimidin-5-one]",< 10
5,"COc1nc(-c2cc(F)ccc2[C@H]2Cc3nc(N)ncc3C(=O)N2)ccc1N [Compound 46, (R)-2-Amino-7-[2-(5-amino-6-methoxy-pyridin-2-y1)-4-fluoro-phenyl]-7,8-dihydro-6H-pyrido[4,3-d]pyrimidin-5-one]",< 10
6,"CCOc1ccnc(-c2cc(F)ccc2[C@H]2Cc3nc(N)nc(C)c3C(=O)N2)n1 [Compound 47, (R)-2-Amino-7-[2-(4-ethoxy-pyrimidin-2-yl)-4-fluoro-phenyl]-4-methyl-7,8-dihydro-6H-pyrido[4,3-d]pyrimidin-5-one]",< 10
7,COc1ccnc(-c2cc(F)ccc2[C@H]2Cc3nc(N)nc(C)c3C(=O)N2)n1 [Compound 48],< 10
8,Cc1nc(N)nc2c1C(=O)N[C@@H](c1ccc(F)cc1-c1nccc(N3CCCC3)n1)C2 [Compound 49],> 10
9,"Cc1nc(N)nc2c1C(=O)N[C@@H](c1ccc(F)cc1C#N)C2 [Compound 50, 2-((R)-2-Amino-4-methyl-5-oxo-5,6,7,8-tetrahydro-pyrido[4,3-d]pyrimidin-7-yl)-5-fluoro-benzonitrile]",> 10
10,"COc1cnc(-c2cc(F)ccc2[C@H]2Cc3nc(N)nc(C)c3C(=O)N2)nc1OC [Compound 51, (R)-2-Amino-7-[2-(4,5-4-methoxy-pyrimidin-2-yl)-4-fluoro-phenyl]-4-methyl-7,8-dihydro-6H-pyrido[4,3-d]pyrimidin-5-one]",< 10
11,"COc1nc(-c2cc(F)ccc2[C@H]2Cc3nc(N)nc(C)c3C(=O)N2)ncc1Cl [Compound 52, (R)-2-Amino-7-[2-(5-chloro-4-methoxy-pyrimidin-2-yl)-4-fluoro-phenyl]-4-methyl-7,8-dihydro-6H-pyrido[4,3-d]pyrimidm-5-one]",< 10
12,"COc1cncc(-c2cc(F)ccc2[C@H]2Cc3nc(N)ncc3C(=O)N2)n1 [Compound 53, (R)-2-Amino-7-[4-fluoro-2-(6-methoxy-pyrazin-2-yl)-phenyl]-7,8-dihydro-6H-pyrido[4,3-d]pyrimidin-5-one]",< 10
13,"COc1ccccc1-c1cc(F)ccc1[C@H]1Cc2nc(N)ncc2C(=O)N1 [Compound 54, (R)-2-Amino-7-(5-fluoro-2′-methoxy-biphenyl-2-yl)-7,8-dihydro-6H-pyrido[4,3-d]pyrimidin-5-one]",< 10
14,"COc1ccc(F)cc1-c1cc(F)ccc1[C@H]1Cc2nc(N)ncc2C(=O)N1 [Compound 55, (R)-2-Ammo-7-(5,5′-difluoro-2′-methoxy-biphenyl-2-yl)-7,8-dihydro-6H-pyrido[4,3-d]pyrimidin-5-one]",< 10
15,"COc1cc(F)ccc1-c1cc(F)ccc1[C@H]1Cc2nc(N)ncc2C(=O)N1 [Compound 56, (R)-2-Amino-7-(5,4′-difluoro-2′-methoxy-biphenyl-2-yl)-7,8-dihydro-6H-pyrido[4,3-d]pyrimidin-5-one]",< 10
16,"Cc1cccc(-c2cc(F)ccc2[C@H]2Cc3nc(N)ncc3C(=O)N2)c1 [Compound 58, (R)-2-Amino-7-(5-fluoro-3′-methyl-biphenyl-2-yl)-7,8-dihydro-6H-pyrido[4,3-d]pyrimidin-5-one]",< 10
17,"Cc1ccc(-c2cc(F)ccc2[C@H]2Cc3nc(N)ncc3C(=O)N2)cc1 [Compound 60, (R)-2-Amino-7-(5-fluoro-4′-methyl-biphenyl-2-yl)-7,8-dihydro-6H-pyrido[4,3-d]pyrimidin-5-one]",< 10
18,"Cc1cc(F)ccc1-c1cc(F)ccc1[C@H]1Cc2nc(N)ncc2C(=O)N1 [Compound 61, (R)-2-Amino-7-(5,4′-difluoro-2′-methyl-biphenyl-2-yl)-7,8-dihydro-6H-pyrido[4,3-d]pyrimidin-5-one]",< 10
19,"Nc1ncc2c(n1)C[C@H](c1ccc(F)cc1-c1cccnc1)NC2=O [Compound 62, (R)-2-Amino-7-(4-fluoro-2-pyridin-3-yl-phenyl)-7,8-dihydro-6H-pyrido[4,3-d]pyrimidin-5-one]",< 10
20,"COc1ncc(-c2cc(F)ccc2[C@H]2Cc3nc(N)ncc3C(=O)N2)c(OC)n1 [Compound 63, (R)-2-Amino-7-[2-(2,4-dimethoxy-pyrimidin-5-yl)-4-fluoro-phenyl]-7,8-dihydro-6H-pyrido[4,3-d]pyrimidin-5-one]",> 10
21,"COc1nc(-c2ccccc2[C@H]2Cc3nc(N)nc(C)c3C(=O)N2)ncc1F [Compound 64, (R)-2-Amino-7-[2-(5-fluoro-4-methoxy-pyrimidin-2-yl)-phenyl]-4-methyl-7,8-dihydro-6H-pyrido[4,3-d]pyrimidin-5-one]",< 10
22,"COc1ccc(-c2cc(F)ccc2[C@H]2Cc3nc(N)nc(C)c3C(=O)N2)s1 [Compound 65, (R)-2-Amino-7-[4-fluoro-2-(5-methoxy-thiophen-2-yl)-phenyl]-4-methyl-7,8-dihydro-6H-pyrido[4,3-d]pyrimidin-5-one]",< 10
23,"Cc1nc(N)nc2c1C(=O)N[C@@H](c1ccccc1Br)C2 [Compound 66, (R)-2-Amino-7-(2-bromo-phenyl)-4-methyl-7,8-dihydro-6H-pyrido[4,3-d]pyrimidin-5-one]",> 10
24,"COc1nc(-c2ccccc2[C@H]2Cc3nc(N)nc(C)c3C(=O)N2)cs1 [Compound 67, (R)-2-Amino-7-[2-(2-methoxy-thiazol-4-yl)-phenyl]-4-methyl-7,8-dihydro-6H-pyrido[4,3-d]pyrimidin-5-one]",< 10
25,COc1ncc(-c2ccccc2[C@H]2Cc3nc(N)nc(C)c3C(=O)N2)nc1OC [Compound 68],< 10
26,"COc1cncc(-c2ccccc2[C@H]2Cc3nc(N)nc(C)c3C(=O)N2)n1 [Compound 69, (R)-2-Amino-7-[2-(6-methoxy-pyrazin-2-yl)-phenyl]-4-methyl-7,8-dihydro-6H-pyrido[4,3-d]pyrimidin-5-one]",< 10
27,"CCc1nc(N)nc2c1C(=O)N[C@@H](c1ccc(F)cc1Br)C2 [Compound 70, (R)-2-Amino-7-(2-bromo-4-fluoro-phenyl)-4-ethyl-7,8-dihydro-6H-pyrido[4,3-d]pyrimidin-5-one]",> 10
28,"CCOc1cncc(-c2ccccc2[C@H]2Cc3nc(N)nc(C)c3C(=O)N2)n1 [Compound 71, (R)-2-Amino-7-[2-(6-ethoxy-pyrazin-2-yl)-phenyl]-4-methyl-7,8-dihydro-6H-pyrido[4,3-d]pyrimidin-5-one]",< 10
29,CCOc1nc(-c2cc(F)ccc2[C@H]2Cc3nc(N)nc(C)c3C(=O)N2)ncc1F [Compound 72],< 10
